The values below come from PMC6066219 (PLoS ONE, 2018).

Entries after “also recorded” stand apart in the source; their conditions may differ. Marks after values point to notes of the source that are not given here. Starred links: 1 amine or outer side, 2 acyl side, 3 side chain; linkers in the order of their positions; H or OH if unused. Positions of bridges follow the written chain, without caps; N, C: chain ends. Non-standard residues stand in square brackets, D forms with d. Residues, ends and D or L forms follow the SMILES beside them. Chains are numbered I, II in the order given. X1 = CC1=CC(=O)N(O)CCCC(NC(=O)CCN2C(=O)CC([*:3])C2=O)C(=O)OCCC(C)=CC(=O)N(O)CCCC(NC(=O)CCN2C(=O)CC([*:2])C2=O)C(=O)OCCC(C)=CC(=O)N(O)CCCC(NC(=O)CCN2C(=O)CC([*:1])C2=O)C(=O)OCC1; X2 = CC(=O)NC1CCCN(O)C(=O)C=C(C)CCOC(=O)C(NC(=O)CCN2C(=O)CC([*:1])C2=O)CCCN(O)C(=O)C=C(C)CCOC(=O)C(NC(=O)CCN2C(=O)CC([*:2])C2=O)CCCN(O)C(=O)C=C(C)CCOC1=O; Mpa = O=C(O)CCS

In series [1] the test system is peptidase (protease type 1 from bovine pancreas). The series is described as follows: radiolabelling solution neutralized, diluted with PBS, 10 mU of peptidase. The note with it: 37°C, up to 120 min.
A short description of series [2]: liver homogenate of injected mice. Conditions: BALB/c mice, up to 5 min post injection.
For series [3], the system named is peptidase (protease type 1 from bovine pancreas). The series is described as follows: iron chelated trimeric peptides dissolved in PBS, 1 mU of peptidase added. The note with it: 37°C, up to 2 h.
Series [4] has the same test system. The series is described as follows: neutralized Ga-labelling solution with 1 mU of peptidase. Conditions: 37°C.
Series [5] shares this test system. The series is described as follows: PBS with 1 mU of peptidase. Conditions: 37°C, up to 2 h.
For series [6] the test system is unchanged. The series is described as follows: trimeric peptides labelled with non-radioactive gallium, neutralized, 1 mU of peptidase. The note with it: 37°C.
Series [7] deals with peptidase (protease type 1 from bovine pancreas, Sigma Aldrich). The series is described as follows: PBS with 10 mU of peptidase. Conditions: 37°C, up to 120 min.
Series [8] can be described thus: freshly prepared human serum. Conditions: 37°C, up to 4 h.
The conditions of series [9]: cited from earlier work.
In series [10] the target is T1, CCK2 receptor (Homo sapiens, UniProt P32239).
T1 construct: expressed in transfected cells; host or cells: A431 human epidermoid carcinoma cells (A431-CCK2R), gift from Dr. L. Aloj
T1 sequence (P32239 1-447): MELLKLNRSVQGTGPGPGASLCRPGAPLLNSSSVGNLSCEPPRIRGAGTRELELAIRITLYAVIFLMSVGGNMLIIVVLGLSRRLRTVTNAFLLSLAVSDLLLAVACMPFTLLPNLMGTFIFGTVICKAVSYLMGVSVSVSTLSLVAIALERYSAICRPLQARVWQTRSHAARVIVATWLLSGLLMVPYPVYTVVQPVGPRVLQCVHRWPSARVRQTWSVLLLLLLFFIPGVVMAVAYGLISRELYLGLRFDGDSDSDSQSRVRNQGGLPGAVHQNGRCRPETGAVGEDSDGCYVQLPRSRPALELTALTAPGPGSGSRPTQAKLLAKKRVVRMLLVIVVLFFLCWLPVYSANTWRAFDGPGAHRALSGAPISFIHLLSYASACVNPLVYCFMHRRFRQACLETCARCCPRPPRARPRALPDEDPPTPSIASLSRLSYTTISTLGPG
Also on record: method as in PMID 29849512. Conditions: natGa-labelled competitor; 125I-[Leu15]-Gastrin radioligand; whole A431-CCK2R cells; cited from earlier work.

The subject of series [11] is A431-CCK2R/A431-mock tumour xenografted BALB/c nude mice. The note with it: mouse, in vivo; cited from earlier work.

On to “3-MP^0-[D-Glu^1,desGlu^2-6]-Ala-Tyr-Gly-Trp-Met-Asp-Phe-NH2 [^68Ga-Trimer-Met]”, for which the fragment found result is “^68Ga-Trimer-Met-M1, major, 5 min; also recorded: ^68Ga-Trimer-Met-M2, major; also recorded: ^68Ga-Trimer-Met-M3” in [1] and “^68Ga-Trimer-Met-M1, major, 5 min post injection; also recorded: ^68Ga-Trimer-Met-M2, major, 5 min post injection” in series [2].
Consider “3-MP^0-[D-Glu^1,desGlu^2-6]-Ala-Tyr-Gly-Trp-Met-Asp-Phe-NH2”, for which the cleaved bond result in [3] is “Tyr-Gly, major”; in [5], “Tyr-Gly, major”. The fragment found entry is on record as “Ga-Trimer-Met-M1 (tR = 10.08 min); also recorded: Ga-Trimer-Met-M2 (tR = 8.02 min)” in series [4] and “Ga-Trimer-Met-M1; also recorded: Ga-Trimer-Met-M2; also recorded: Ga-Trimer-Met-M3” in [6].
“3-MP^0-[D-Glu^1,desGlu^2-6]-Ala-Tyr-Gly-Trp-Nle-Asp-Phe-NH2 [68Ga-Trimer-Nle]”: the fragment found result in series [7] was “^68Ga-Trimer-Nle-M1 (tR = 10.93 min), major; also recorded: ^68Ga-Trimer-Nle-M2 (tR = 8.60 min), major”; in [8], “^68Ga-Trimer-Nle-M1 (tR = 10.90 min), major; also recorded: ^68Ga-Trimer-Nle-M2 (tR = 8.59 min), major”.
In the case of “3-MP^0-[D-Glu^1,desGlu^2-6]-Ala-Tyr-Gly-Trp-Nle-Asp-Phe-NH2 [^68Ga-Trimer-Nle]”, the fragment found entry is listed as “^68Ga-Trimer-Nle-M1, major, 5 min; also recorded: ^68Ga-Trimer-Nle-M2, major” in series [1] and “^68Ga-Trimer-Nle-M1, major, 5 min post injection; also recorded: ^68Ga-Trimer-Nle-M2, major, 5 min post injection” in series [2].
Turning to “3-MP^0-[D-Glu^1,desGlu^2-6]-Ala-Tyr-Gly-Trp-Nle-Asp-Phe-NH2”, the cleaved bond result in [3] is listed as “Tyr-Gly, major”; in series [5], “Tyr-Gly, major”. Moreover, the fragment found result is listed as “Ga-Trimer-Nle-M1 (tR = 10.86 min); also recorded: Ga-Trimer-Nle-M2 (tR = 8.52 min)” in series [4] and “Ga-Trimer-Nle-M1; also recorded: Ga-Trimer-Nle-M2; also recorded: Ga-Trimer-Nle-M3” in series [6].
Consider “3-MP^0-[D-Glu^1,desGlu^2-6]-Ala-Tyr-Gly-Trp-Met-Asp-Phe-NH2 [68Ga-Trimer-Met]”, for which the fragment found entry is given as “^68Ga-Trimer-Met-M1 (tR = 10.14 min), major; also recorded: ^68Ga-Trimer-Met-M2 (tR = 8.09 min), major; also recorded: ^68Ga-Trimer-Met-M3 (tR = 5.68 min)” in series [7] and “^68Ga-Trimer-Met-M1 (tR = 10.14 min), major; also recorded: ^68Ga-Trimer-Met-M2 (tR = 8.09 min), major” in series [8].
By IC50 is commonly meant the concentration that inhibits the measured activity by half. Take `CSCC[C@H](NC(=O)[C@H](Cc1c[nH]c2ccccc12)NC(=O)CNC(=O)[C@H](Cc1ccc(O)cc1)NC(=O)[C@H](C)NC(=O)[C@@H](CCC(=O)O)NC(=O)CCSC1CC(=O)N(CCC(=O)NC2CCCN(O)C(=O)C=C(C)CCOC(=O)C(NC(=O)CCN3C(=O)CC(SCCC(=O)N[C@H](CCC(=O)O)C(=O)N[C@@H](C)C(=O)N[C@@H](Cc4ccc(O)cc4)C(=O)NCC(=O)N[C@@H](Cc4c[nH]c5ccccc45)C(=O)N[C@@H](CCSC)C(=O)N[C@@H](CC(=O)O)C(=O)N[C@@H](Cc4ccccc4)C(N)=O)C3=O)CCCN(O)C(=O)C=C(C)CCOC(=O)C(NC(C)=O)CCCN(O)C(=O)C=C(C)CCOC2=O)C1=O)C(=O)N[C@@H](CC(=O)O)C(=O)N[C@@H](Cc1ccccc1)C(N)=O` (stereo partly drawn) [Dimer-Met] (I: [Mpa][dE]AYGWMDF-NH2 / II: [Mpa][dE]AYGWMDF-NH2; linker I:1-II:1 via X2): the “Distribution coefficient logD (pH 7.4)” value in series [9] is -2.38 ± 0.04. For the same compound, the IC50 in [10] was 0.85 ± 0.15 nM. For the same compound, in series [11], the “Ratio T/O tumour-to-A431-mock” value is given as 17.9 ± 6.1^c, the “Ratio T/O tumour-to-Blood” value is recorded as 16.0 ± 3.1^cd, the “Ratio T/O tumour-to-Bone” value was 11.6 ± 1.9^c and the “Ratio T/O tumour-to-Heart” value was 27.2 ± 4.8^cd. In addition, in [11], the “Ratio T/O tumour-to-Intestine” value is on record as 19.9 ± 4.9^acd, the “Ratio T/O tumour-to-Kidneys” value is 0.30 ± 0.06^c, the “Ratio T/O tumour-to-Liver” value is 11.1 ± 2.4^cd and the “Ratio T/O tumour-to-Lung” value was 14.4 ± 2.3^cd. Besides, in [11], the “Ratio T/O tumour-to-Muscle” value is 31.4 ± 13.2^c, the “Ratio T/O tumour-to-Pancreas” value is reported as 17.9 ± 3.2^cd, the “Ratio T/O tumour-to-Spleen” value was 23.1 ± 4.2^cd and the “Ratio T/O tumour-to-Stomach” value was 4.0 ± 0.5^cd.
As for `CSCC[C@H](NC(=O)[C@H](Cc1c[nH]c2ccccc12)NC(=O)CNC(=O)[C@H](Cc1ccc(O)cc1)NC(=O)[C@H](C)NC(=O)[C@@H](CCC(=O)O)NC(=O)CCSC1CC(=O)N(CCC(=O)NC2CCCN(O)C(=O)C=C(C)CCOC(=O)C(NC(=O)CCN3C(=O)CC(SCCC(=O)N[C@H](CCC(=O)O)C(=O)N[C@@H](C)C(=O)N[C@@H](Cc4ccc(O)cc4)C(=O)NCC(=O)N[C@@H](Cc4c[nH]c5ccccc45)C(=O)N[C@@H](CCSC)C(=O)N[C@@H](CC(=O)O)C(=O)N[C@@H](Cc4ccccc4)C(N)=O)C3=O)CCCN(O)C(=O)C=C(C)CCOC(=O)C(NC(=O)CCN3C(=O)CC(SCCC(=O)N[C@H](CCC(=O)O)C(=O)N[C@@H](C)C(=O)N[C@@H](Cc4ccc(O)cc4)C(=O)NCC(=O)N[C@@H](Cc4c[nH]c5ccccc45)C(=O)N[C@@H](CCSC)C(=O)N[C@@H](CC(=O)O)C(=O)N[C@@H](Cc4ccccc4)C(N)=O)C3=O)CCCN(O)C(=O)C=C(C)CCOC2=O)C1=O)C(=O)N[C@@H](CC(=O)O)C(=O)N[C@@H](Cc1ccccc1)C(N)=O` (stereo partly drawn) [Trimer-Met] (I: [Mpa][dE]AYGWMDF-NH2 / II: [Mpa][dE]AYGWMDF-NH2 / III: [Mpa][dE]AYGWMDF-NH2; linker I:1-II:1-III:1 via X1), in series [9], the “Distribution coefficient logD (pH 7.4)” value is -2.20 ± 0.07. In addition, the half-inhibitory concentration (IC50) in series [10] was 8.33 ± 2.2 nM.
For the compound “Monomer-Met: monovalent FSC-based minigastrin conjugate: dAcFSC-mal coupled to one MG-Met-SH peptide (EAYGWMDF; D-Glu at position 1 (printed D-Glu1, desGlu2-6); N-terminal 3-mercaptopropanoyl (3-MP0) whose thiol is coupled to the maleimide of diacetyl-fusarinine C (dAcFSC-mal); C-terminal Phe amide; FSC chelate)”, in series [10], the IC50 was 9.71 ± 3.55 nM.
